Test results reported in patent US20200199247A1, “ANTIBODY CONJUGATES OF IMMUNE-MODULATORY COMPOUNDS AND USES THEREOF” (SILVERBACK THERAPEUTICS, INC., priority 2017, published 2020).
Peptide text beside a SMILES is read from it. * marks the point of attachment. Cbz = O=C(OCc1ccccc1)*

Key:
TGFβR1 [1] = target: T1, TGFβR1 (Homo sapiens, UniProt P36897); test: TGFβR1 level in HER2-transfected HEK293 cells (western blot); assay type: cell-based; design: Plasmid expressing HER2 was transfected into HEK293 cells; endogenous in cells; host or cells: HEK293 cells transiently transfected with a HER2 plasmid; details: 2, 24 and 48 hours of treatment
T1 sequence (P36897 34-503): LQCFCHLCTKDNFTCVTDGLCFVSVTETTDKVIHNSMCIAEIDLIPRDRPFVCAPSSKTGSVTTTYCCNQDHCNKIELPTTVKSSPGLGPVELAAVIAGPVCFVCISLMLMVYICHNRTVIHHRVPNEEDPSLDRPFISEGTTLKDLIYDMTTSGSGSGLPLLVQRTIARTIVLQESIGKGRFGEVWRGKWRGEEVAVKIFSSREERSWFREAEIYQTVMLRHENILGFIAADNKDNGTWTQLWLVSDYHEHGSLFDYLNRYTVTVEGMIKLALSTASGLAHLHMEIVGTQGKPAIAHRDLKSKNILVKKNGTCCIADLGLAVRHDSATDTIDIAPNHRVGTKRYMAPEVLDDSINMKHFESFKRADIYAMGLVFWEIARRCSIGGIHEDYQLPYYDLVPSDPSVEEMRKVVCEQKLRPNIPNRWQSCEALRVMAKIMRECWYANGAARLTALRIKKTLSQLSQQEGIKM
Procedure: After treatment, media is aspirated and cells are rinsed with ice cold PBS. Ice cold lysis buffer (20 mM TrisHCl pH 7.5, 150 mM NaCl, 1% Triton X-100, 2 mM EDTA and 10% glycerol) containing phosphatase and protease inhibitors is added to wells and cells are removed from the plate using a cell scraper. Lysates are transferred to a 1.5 ml tube and rocked for one hour at 4° C. with vortexing every ˜15 minutes. Tubes are spun at 8500×g for 10 minutes and supernatants are drawn into an insulin needle twice. Cell lysates are frozen at ˜80° C. Protein concentration is determined using a BCA assay and equal amounts of samples are boiled with reducing loading buffer. […] Loading controls are detected with 1:15000 diluted primary antibody incubation at room temperature for 1 hour with rocking (Tubulin—Abcam, ab7291; Actin—Abcam, ab8224). […]
Plasmid expressing HER2 was transfected into HEK293 cells using commercially available materials and conditions. […] Whole cell lysates were prepared from cells after 2, 24, or 48 hours incubation and quantitated with a BCA assay. Equal amounts of lysates were run on protein gels, transferred to PVDF, and TGFβR2 was detected using commercially available reagents. To quantitate the amount of protein degradation, the signals on the Western blot were adjusted to actin loading control and data is presented as a percent of matched control.

TGFβR1 [2] = target: T1, TGFβR1; test: Cellular level of TGFβR1 in normal human lung fibroblasts with or without proteasome inhibitor (western blot); assay type: cell-based; design: endogenous in cells; host or cells: normal human lung fibroblasts
Procedure: Cells are plated, allowed to adhere, and treated with vehicle, an inhibitor, a PROTAC or a conjugate in the presence or absence of proteasome inhibitor, such as MG-132. After treatment, media is aspirated and cells are rinsed with ice cold PBS. Ice cold lysis buffer (20 mM TrisHCl pH 7.5, 150 mM NaCl, 1% Triton X-100, 2 mM EDTA and 10% glycerol) containing phosphatase and protease inhibitors is added to wells and cells are removed from the plate using a cell scraper. Lysates are transferred to a 1.5 ml tube and rocked for one hour at 4° C. with vortexing every ˜15 minutes. Tubes are spun at 8500×g for 10 minutes and supernatants are drawn into an insulin needle twice. Cell lysates are frozen at […]. Protein concentration is determined using a BCA assay and equal amounts of samples are boiled with reducing loading buffer. The samples are then subjected to electrophoresis on 4-20% polyacrylamide gels which are then transferred to PVDF membranes. […] Loading controls are detected with 1:15000 diluted primary antibody incubation at room temperature for 1 hour with rocking (Tubulin—Abcam, ab7291; Actin—Abcam, ab8224). […]
Normal human lung fibroblasts were treated with or without proteasome inhibitor MG-132 followed by the addition of DMSO or T-20. Whole cell lysates were prepared and then quantitated with a BCA assay. […] TGFβR1, TGFβR2, and actin were detected using commercially available reagents. […]

Row | amount of TGFβR1 protein (TGFβR1 [1]) | degradation of TGFβR1 (TGFβR1 [2]; 5 μM T-20) | SMILES | effect of proteasome inhibitor on T-20 induced degradation of TGFβR1 (TGFβR1 [2]; MG132 10 and 50 μM followed by 5 μM T-20)
1 | remained fairly constant | degradation induced by T-20 | Nc1ncc(-c2ccc(CCNC(=O)[C@@H](N)CCCCNC(=O)COc3cccc4c3C(=O)N(C3CCC(=O)NC3=O)C4=O)cc2)nc1C(=O)Nc1cnccc1N1CCOCC1 (stereo partly drawn) [Compound T-20, 3-amino-6-(4-(2-((2S)-2-amino-6-(2-((2-(2,6-dioxopiperidin-3-yl)-1,3-dioxoisoindolin-4-yl)oxy)acetamido)hexanamido)ethyl)phenyl)-N-(4-morpholinopyridin-3-yl)pyrazine-2-carboxamide] | 
2 |  |  | CC(C)C[C@@H](C=O)NC(=O)[C@H](CC(C)C)NC(=O)[C@H](CC(C)C)NC(=O)OCc1ccccc1 [MG-132, reference compound] (Cbz-Leu-Leu-Leu-aldehyde) | protected
